Data on 3 compounds can be found in PMC6394990, “Detailed characterization of the solution kinetics and thermodynamics of biotin, biocytin and HABA binding to avidin and streptavidin” (PLoS ONE, 2019).

The structures appear in SMILES notation. Values joined by “and” are separate entries in the source; they are usually repeats but may differ in a detail not shown here. Equal values may be shown once. Read-outs that look alike come from different tables or passages of the source.

The target in data set [1] is T1, streptavidin (SAV) (Streptomyces avidinii, UniProt P22629).
T1 construct: purchased Sigma Aldrich (St. Louis, MO)
T1 sequence (P22629 25-183): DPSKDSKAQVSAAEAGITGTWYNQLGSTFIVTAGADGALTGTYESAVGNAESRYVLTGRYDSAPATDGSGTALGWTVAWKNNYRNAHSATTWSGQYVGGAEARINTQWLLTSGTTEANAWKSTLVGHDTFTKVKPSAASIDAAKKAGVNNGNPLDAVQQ
Particulars: cited from earlier work.

Data set [2] addresses T2, avidin (AV) (Gallus gallus, UniProt P02701).
T2 construct: purchased Calbiochem (La Jolla, CA)
Particulars: cited from earlier work; for ΔG° ^ǂ, Backward / ΔS° ^ǂ, Backward: calculated from the plotted data; for Ea^Backward: ref 18.

Data set [3] has as its target T1, streptavidin (SAV). The note with it: SAV-B7, cited from earlier work.
In data set [4] the target is T1, streptavidin (SAV). Description: Fluorescence lifetimes, SAV complex. The format is physicochemical. The note with it: for t (1), fluorescence lifetime: complex with SAV, t for BFl and BcO, average lifetime for B-DNAds*Fl. The procedure:
(§1) The lifetimes (τ), steady state anisotropies (rss), time-resolved anisotropies (rt) and quantum yields (QY) of the complexes (at 20 ± 0.1°C and pH 8) were collected with a dye-labeled B7 probe concentration of 20–40 nM and 1040–2080 nM of either protein (AV or SAV) to ensure that only one binding site in the tetramer was filled with a ligand (AB1 filling model).
(§2) The lifetimes were collected in a FluoTime100 fluorescence spectrometer (PicoQuant, GmbH, Berlin, Germany) with the excitation light source provided by a picosecond pulsed diode laser (PicoQuant, GmbH, Berlin, Germany) at 470 nm and 20 MHz. The emission was collected at 520 nm through a non-fluorescing 520 nm interference filter (Oriel Corp., Stratford, CT) followed by a liquid filter of 1cm path length containing 24 mM acetate buffered dichromate at pH 4, between the sample and detector to eliminate traces of excitation light. The fluorescence decays were fit by a nonlinear least-squares minimization based on the Marquardt algorithm embedded in the Fluofit software (PicoQuant GmbH). Twenty-eight decays were collected per sample, the decays were grouped in four sets, consisting of seven sample decays and one Instrument Response Function, IRF, for deconvolution proposes. The decay sets were globally fitted to mono- or bi-exponential decay models that were discriminated using the statistical parameter χ^2. The rt data were acquired with the fluorimeter described above equipped with a polarizer and an analyzer to acquire the parallel VV(t) and perpendicular VH(t) decays. The PicoQuant G factor was calculated according to: G = ∫HV(t)dt/∫HH(t)dt, where HV(t) and HH(t) were the decays collected with the emission polarizer selecting vertical and horizontal E-vector passing orientations, respectively, and the excitation polarizer set at horizontally position.

Data set [5] addresses T2, avidin (AV). The data set is described as follows: Time-resolved anisotropy, cone angle, AV complex. It counts as physicochemical. Particulars: for Cone Angle Ω: AV complex (AB1), 20°C; for W: complex with AV. On the procedure:
as §1, §2
The r¯t values were calculated according to Eq 11 where the pre-exponential “f” corresponds to the slow phase that derives from the lifetime of the global motion (τG) which was fitted within a range of expected correlation time for the complex size; consequently, facilitating resolution of the fast correlation lifetime (τp) and the corresponding pre-exponential (1-f). r¯(t)=(1−f)∙exp(−t/τp)+f∙exp(−t/τG) (11) The f parameter was constrained to the observed rss (Eq 12) where F^(t) (Eq 13) is normalized (α1 + α2 = 1) and derived from the observed fluorescence decays of the complex. rss=0.4∫r¯(t)∙F^(t)dt (12) Where F^(t)=α1exp(−t/τ1)+α2exp(−t/τ2)/α1τ1+α2τ2 (13)
In a simple model, the transition moment is assumed to wobble within a cone of semi-apical angle Ω [59], where the cone axis is normal to the surface of a sphere that corresponds to the macromolecule. The angle Ω is calculated from Eq 14.

Data set [6] is described as follows: Fluorescence lifetimes, unbound probe. It counts as physicochemical. The note with it: unbound dye; t for BFl and BcO, average lifetime for B-DNAds*Fl; in ns. On the procedure:
as §1
as §2, with “Twenty-eight decays were collected per sample, the decays were grouped in four sets, consisting of seven sample decays and one Instrument Response Function, IRF, for deconvolution proposes. The decay sets were globally fitted to mono- or bi-exponential decay models that were discriminated using the statistical parameter χ^2. The rt data were acquired with the fluorimeter described above equipped with a polarizer and an analyzer to acquire the parallel VV(t) and perpendicular VH(t) decays.” left out

In data set [7] the target is T1, streptavidin (SAV). The data set is described as follows: Absorbance and fluorescence emission spectra, SAV complex. It counts as physicochemical. The procedure: as §1
The QY values were obtained by using a reference fluorophore of known quantum yield and were calculated according to Parker and Rees, where the reference dye was fluorescein in 0.1N sodium hydroxide solution [46]. The emission fluorescence scans were collected from 480 nm to 700 nm with the excitation light set at 460 nm provided by the xenon arc lamp described above. These measurements were made on the AB1 complexes at high protein concentration.
Supplementary file pone.0204194.s001.docx: S1 Fig Absorbance spectra of dye-labeled B7 probes and respective complexes with AV and SAV. […] The spectra are normalized to the calculated molar absorptivies. The distortion of the SAV-BFl absorbance spectrum (B panel) is caused by the presence of Fl^2- and Fl^1-. The labeled probes and protein concentrations were 1 μM and 10 μM, respectively. (DOCX) Click here for additional data file.
Supplementary file pone.0204194.s002.docx: S2 Fig Fluorescence emission spectra of dye-labeled B7 and respective complexes with AV and SAV. […] The probe and protein concentrations were 20 nM and 1040 nM (AB1 filling model), respectively. (DOCX) Click here for additional data file.

Setting [8] is: SAV complex, di-ionic fluorescein species.
Where [9] appears, read: SAV complex, mono-ionic fluorescein species.

One may read the kon as a measure of how fast the partners come together.

T2 sequence (P02701 25-152): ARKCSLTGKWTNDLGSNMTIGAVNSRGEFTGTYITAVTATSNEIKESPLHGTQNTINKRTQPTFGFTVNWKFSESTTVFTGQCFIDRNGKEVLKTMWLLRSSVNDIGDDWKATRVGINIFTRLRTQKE

As for `O=C(O)CCCC[C@@H]1SC[C@@H]2NC(=O)N[C@@H]21` [B7, d-biotin], the “ΔG° ^ǂ, Backward” value was 24.8 ± 0.3 kcal/mol and 24.8 ± 0.3 80,f kcal/mol on streptavidin (SAV) [1] (SAV-B7, calculated at 25°C); 24.8 ± 0.3 53,b kcal/mol on streptavidin (SAV) [1] (SAV-B7, calculated at 25°C, listed as B); 24.6 ± 0.3 kcal/mol and 24.6 ± 0.3 36,81 kcal/mol on streptavidin (SAV) [1] (SAV-B7, ref 39, 82); 24.6 ± 0.3 20, 55 kcal/mol on streptavidin (SAV) [1] (SAV-B7, ref 39, 82, listed as B); 21.4 ± 2.0 kcal/mol and 21.4 ± 2.0 44 kcal/mol at streptavidin (SAV) [1] (SAV-B7, ref 47); 21.4 ± 1.0 6 kcal/mol at streptavidin (SAV) [1] (SAV-B7, ref 47, listed as B). Besides, the “ΔG° ^ǂ, Backward” value was 24.7 ± 2.0 [18]^e kcal/mol and 24.7 kcal/mol on avidin (AV) [2] (AV-B7); 24.7 ± 1.0 6,a kcal/mol at avidin (AV) [2] (AV-B7, listed as B). Also, the “ΔS° ^ǂ, Backward” value was 29.9 ± 2.0 cal/mol°K and 29.9 ± 2.0 18 e cal/mol°K at streptavidin (SAV) [1] (SAV-B7, calculated from the plotted data); 29.9 ± 2.0 6,a cal/mol°K on streptavidin (SAV) [1] (SAV-B7, calculated from the plotted data, listed as B); 18.8 ± 0.3 cal/mol°K and 18.8 ± 0.3 36,80,81 cal/mol°K on streptavidin (SAV) [1] (SAV-B7, ref 39, 80, 82); 18.8 ± 0.3 20, 53, 55 cal/mol°K on streptavidin (SAV) [1] (SAV-B7, ref 39, 80, 82, listed as B); 25.8 cal/mol°K and 25.8 82 cal/mol°K at streptavidin (SAV) [1] (SAV-B7, ref 81); 25.8 56 cal/mol°K at streptavidin (SAV) [1] (SAV-B7, ref 81, listed as B). Moreover, the “ΔS° ^ǂ, Backward” value on avidin (AV) [2] (AV-B7) is 43.0 ± 2.0 [18]^e cal/mol°K and 43 cal/mol°K; on avidin (AV) [2] (AV-B7, listed as B), 43.0 ± 2.0 6,a cal/mol°K. For the same compound, the “Ea^Backward” value was 30.4 ± 0.2 kcal/mol and 30.4 ± 0.2 36,80 kcal/mol at streptavidin (SAV) [1] (SAV-B7, ref 39, 80); 30.4 ± 0.2 20, 53 kcal/mol at streptavidin (SAV) [1] (SAV-B7, ref 39, 80, listed as B); 32.0 kcal/mol and 32 kcal/mol on streptavidin (SAV) [1] (SAV-B7, ref 81); 32.0 56 kcal/mol at streptavidin (SAV) [1] (SAV-B7, ref 81, listed as B); 25.8 ± 1.2 kcal/mol and 25.8 ± 1.2 81 kcal/mol on streptavidin (SAV) [1] (SAV-B7, ref 82); 25.8 ± 1.2 55 kcal/mol at streptavidin (SAV) [1] (SAV-B7, ref 82, listed as B). In addition, the “Ea^Backward” value was 37.6 ± 2.0 [18] kcal/mol and 37.6 kcal/mol on avidin (AV) [2] (AV-B7); 37.6 ± 1.0 6,a kcal/mol at avidin (AV) [2] (AV-B7, listed as B). Moreover, the koff replacement is 2.4e-06 s⁻¹ on streptavidin (SAV) [1] (SAV-B7, ref 68) and 9e-08 s⁻¹ on avidin (AV) [2] (AV-B7, ref 35). Also, the on-rate constant (kon) on streptavidin (SAV) [1] (SPR, immobilized B7, 4°C) is 5.1e+06 M⁻¹ s⁻¹; on streptavidin (SAV) [1] (stopped-flow, tryptophan fluorescence quenching, 25°C and pH 7), 7.5 ± 0.6 × 10^7 M^-1s^-1; at avidin (AV) [2] (Surface Plasmon Resonance, 20°C, pH 7.4 in HEPES buffer), 2.0 ± 0.3 × 10^6 M^-1s^-1; on avidin (AV) [2] (pH 5 and 25°C, 14C-biotin quenching experiment), 7e+07 M⁻¹ s⁻¹. In addition, the “half-life of the AV-B7 complex” value on avidin (AV) [2] is 90 days. In addition, the “ΔH°rxn” value on streptavidin (SAV) [3] (ref 19) is -26.7 19 kcal/mol; at streptavidin (SAV) [3] (ref 19, listed as B), -26.7 6 kcal/mol; on streptavidin (SAV) [3] (ref 39), -24.5 kcal/mol and -24.5 36 kcal/mol; at streptavidin (SAV) [3] (ref 39, listed as B), -24.5 20 kcal/mol; at streptavidin (SAV) [3] (ref 79), -23.0 kcal/mol and -23.0 72 kcal/mol; at streptavidin (SAV) [3] (ref 79, listed as B), -23.0 50 kcal/mol. Also, the “ΔH°rxn” value on streptavidin (SAV) [3] (ref 80) was -24.9 ± 0.4 kcal/mol and -24.9 ± 0.4 80 kcal/mol; at streptavidin (SAV) [3] (ref 80, listed as B), -24.9 ± 0.4 53 kcal/mol. Also, the “ΔG°rxn” value on streptavidin (SAV) [3] (ref 39) was -18.1 kcal/mol and -18.1 36 kcal/mol; on streptavidin (SAV) [3] (ref 39, listed as B), -18.1 20 kcal/mol; on streptavidin (SAV) [3] (ref 83, 84), -18.3 kcal/mol and -18.3 83,84 kcal/mol; at streptavidin (SAV) [3] (ref 83, 84, listed as B), -18.3 54, 57 kcal/mol. Further, the “ΔS°rxn” value at streptavidin (SAV) [3] (ref 39) was -21.0 [39] cal/mol°K and -21.0 36 cal/mol°K; at streptavidin (SAV) [3] (ref 39, listed as B) it was -21.0 20 cal/mol°K.
`NC(CCCCNC(=O)CCCC[C@@H]1SC[C@@H]2NC(=O)N[C@@H]21)C(=O)NCCCCCNC(=O)c1ccc(-c2c3cc(F)c(=O)cc-3oc3cc(O)c(F)cc23)c(C(=O)O)c1` (some centres unmarked) [BcO, Oregon green 488 Biocytin]: the “Lifetime τ” value on streptavidin (SAV) [4] (SAV complex (AB1), 20°C, pH 8) was determined as 3.98 ± 0.01 ns. Moreover, the “t (1), fluorescence lifetime” value on streptavidin (SAV) [4] amounted to 3.98 ± 0.01. Also, at avidin (AV) [5], the “Cone Angle Ω” value worked out at 50 ± 2 degrees and the W was found to be 50. For the same compound, in data set [6], the “t (1), fluorescence lifetime” value is 3.75 ± 0.04.
Regarding `O=C(CCCC[C@@H]1SC[C@@H]2NC(=O)N[C@@H]21)NCCNC(=O)c1ccc(-c2c3ccc(=O)cc-3oc3cc(O)ccc23)c(C(=O)O)c1` [BFl, Biotin-4-fluorescein], on streptavidin (SAV) [4] (SAV complex), the “Σαiτi (integrated lifetime)” value stood at 3.70 ± 0.05 ns, the α1 worked out at 0.61 ± 0.03, the α2 was determined as 0.39 ± 0.03 and the τ1 is recorded as 4.10 ± 0.02 ns. Moreover, on streptavidin (SAV) [4] (SAV complex), the τ2 is listed as 3.1 ± 0.02 ns. Moreover, the “Lifetime τ” value at streptavidin (SAV) [4] (setting [8]) is 4.1 ns and 4.1 ± 0.1 ns. Besides, at streptavidin (SAV) [4] (setting [9]), the “Lifetime τ” value is 3.0 ns and 3.0 ± 0.1 ns. At streptavidin (SAV) [4], the “t (1), fluorescence lifetime” value is listed as 3.69 ± 0.01. For the same compound, at avidin (AV) [5], the “Cone Angle Ω” value was found to be 51 ± 2 degrees and the W amounted to 51. Also, the “Maximum Absorbance” value at streptavidin (SAV) [7] (setting [8]) came out at 494 nm. Moreover, on streptavidin (SAV) [7] (setting [9]), the “Maximum Absorbance” value amounted to 472 nm and the “Maximum Emission” value came out at 515 nm. In addition, the “Emission (nm)” value on streptavidin (SAV) [7] (complex with SAV) amounted to 524 nm. Also, the “t (1), fluorescence lifetime” value in data set [6] is recorded as 4.03 ± 0.01.
